Measurements from patent US9149038B2, “4-amino-6-(heterocyclic)picolinates and 6-amino-2-(heterocyclic)pyrimidine-4-carboxylates and their use as herbicides” (Dow AgroSciences LLC, priority 2013, dated 2015).
Where two headings read alike, the source gives them in different places.

What was measured:
[1] = test system: Key Grass and Sedge Weeds as well as Grass Crops; assay: Post-Emergent Test II: postemergent herbicidal activity, visual rating after 14 d (Table 8); assay type: in vivo; conditions: post-emergence, 336 h; for pest or weed control at 35 g/ha: 35 g ai/ha; for pest or weed control at 70 g/ha: 70 g ai/ha; for pest or weed control at 140 g/ha: 140 g ai/ha
Summary of the method: (§1)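 Scoring is visual, 0-100, at 14 d after application, comparing treated with untreated plants. Application: overhead track spray at 187 L/ha onto seedlings at 1-2 true leaves, in surfactant/crop-oil carrier.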

[2] = test system: Key Broadleaf Weed and Crop Species; assay: Post-Emergent Test II: postemergent herbicidal activity, visual rating after 14 d (Table 7); assay type: in vivo; conditions: post-emergence, 336 h; for pest or weed control at 35 g/ha: 35 g ai/ha; for pest or weed control at 70 g/ha: 70 g ai/ha; for pest or weed control at 140 g/ha: 140 g ai/ha
Summary of the method: as §1

[3] = barnyardgrass (Echinochloa crus-galli), read-out: Visual Growth Reduction (%) 14 Days After Application ECHCG
[4] = giant foxtail (Setaria faberi), read-out: Visual Growth Reduction (%) 14 Days After Application SETFA
[5] = maize, corn (Zea mays), read-out: Visual Growth Reduction (%) 14 Days After Application ZEAMX
[6] = rice (Oryza sativa), read-out: Visual Growth Reduction (%) 14 Days After Application ORYSA
[7] = wheat, spring (Triticum aestivum), read-out: Visual Growth Reduction (%) 14 Days After Application TRZAS
[8] = yellow nutsedge (Cyperus esculentus), read-out: Visual Growth Reduction (%) 14 Days After Application CYPES
[9] = lambsquarters (Chenopodium album), read-out: Visual Growth Reduction (%) 14 Days After Application CHEAL
[10] = oilseed rape, canola (Brassica napus), read-out: Visual Growth Reduction (%) 14 Days After Application BRSNN
[11] = redroot pigweed (Amaranthus retroflexus), read-out: Visual Growth Reduction (%) 14 Days After Application AMARE
[12] = sunflower (Helianthus annuus), read-out: Visual Growth Reduction (%) 14 Days After Application HELAN
[13] = velvetleaf (Abutilon theophrasti), read-out: Visual Growth Reduction (%) 14 Days After Application ABUTH
[14] = wild poinsettia (Euphorbia heterophylla), read-out: Visual Growth Reduction (%) 14 Days After Application EPHHL

COC(=O)c1nc(-c2ccc3c(c2)OC(F)(F)O3)c(F)c(N)c1OC [Compound 24]
60 to 74%: pest or weed control at 35 g/ha [1, 3] | pest or weed control at 35 g/ha [1, 5]
75 to 84%: pest or weed control at 70 g/ha [1, 5] | pest or weed control at 140 g/ha [1, 5] | pest or weed control at 35 g/ha [2, 14]
95 to 100%: pest or weed control at 140 g/ha [1, 3] | pest or weed control at 35 g/ha [1, 8] | pest or weed control at 70 g/ha [1, 8] | pest or weed control at 140 g/ha [1, 8] | pest or weed control at 70 g/ha [2, 14] | pest or weed control at 140 g/ha [2, 14]
30 to 44%: pest or weed control at 140 g/ha [1, 7]
0 to 29%: pest or weed control at 35 g/ha [1, 4] | pest or weed control at 70 g/ha [1, 4] | pest or weed control at 140 g/ha [1, 4] | pest or weed control at 35 g/ha [1, 6] | pest or weed control at 70 g/ha [1, 6] | pest or weed control at 140 g/ha [1, 6] | pest or weed control at 35 g/ha [1, 7] | pest or weed control at 70 g/ha [1, 7] | pest or weed control at 35 g/ha [2, 9] | pest or weed control at 70 g/ha [2, 9] | pest or weed control at 140 g/ha [2, 9] | pest or weed control at 35 g/ha [2, 10] | pest or weed control at 70 g/ha [2, 10] | pest or weed control at 140 g/ha [2, 10] | pest or weed control at 35 g/ha [2, 11] | pest or weed control at 70 g/ha [2, 11] | pest or weed control at 140 g/ha [2, 11] | pest or weed control at 35 g/ha [2, 12] | pest or weed control at 70 g/ha [2, 12] | pest or weed control at 140 g/ha [2, 12] | pest or weed control at 35 g/ha [2, 13] | pest or weed control at 70 g/ha [2, 13] | pest or weed control at 140 g/ha [2, 13]
85 to 94%: pest or weed control at 70 g/ha [1, 3]

COc1c(C(=O)O)nc(-c2ccc3c(c2)OC(F)(F)O3)c(F)c1N [Compound 25]
75 to 84%: pest or weed control at 70 g/ha [1, 5] | pest or weed control at 140 g/ha [1, 5] | pest or weed control at 35 g/ha [2, 10] | pest or weed control at 140 g/ha [2, 13]
30 to 44%: pest or weed control at 70 g/ha [1, 6]
85 to 94%: pest or weed control at 35 g/ha [1, 3] | pest or weed control at 70 g/ha [1, 3]
0 to 29%: pest or weed control at 35 g/ha [1, 6] | pest or weed control at 35 g/ha [2, 9] | pest or weed control at 70 g/ha [2, 9] | pest or weed control at 35 g/ha [2, 11] | pest or weed control at 70 g/ha [2, 11] | pest or weed control at 140 g/ha [2, 11] | pest or weed control at 35 g/ha [2, 12] | pest or weed control at 70 g/ha [2, 12] | pest or weed control at 140 g/ha [2, 12]
45 to 59%: pest or weed control at 35 g/ha [1, 4] | pest or weed control at 35 g/ha [1, 7] | pest or weed control at 70 g/ha [1, 7] | pest or weed control at 140 g/ha [2, 9] | pest or weed control at 35 g/ha [2, 13]
60 to 74%: pest or weed control at 70 g/ha [1, 4] | pest or weed control at 140 g/ha [1, 4] | pest or weed control at 35 g/ha [1, 5] | pest or weed control at 140 g/ha [1, 6] | pest or weed control at 140 g/ha [1, 7] | pest or weed control at 70 g/ha [2, 13]
95 to 100%: pest or weed control at 140 g/ha [1, 3] | pest or weed control at 35 g/ha [1, 8] | pest or weed control at 70 g/ha [1, 8] | pest or weed control at 140 g/ha [1, 8] | pest or weed control at 70 g/ha [2, 10] | pest or weed control at 140 g/ha [2, 10] | pest or weed control at 35 g/ha [2, 14] | pest or weed control at 70 g/ha [2, 14] | pest or weed control at 140 g/ha [2, 14]

COC(=O)c1nc(-c2ccc3c(c2C)OC(F)(F)O3)cc(N)c1Cl [Compound 35]
0 to 29%: pest or weed control at 35 g/ha [1, 3] | pest or weed control at 70 g/ha [1, 3] | pest or weed control at 140 g/ha [1, 3] | pest or weed control at 35 g/ha [1, 4] | pest or weed control at 70 g/ha [1, 4] | pest or weed control at 140 g/ha [1, 4] | pest or weed control at 35 g/ha [1, 5] | pest or weed control at 70 g/ha [1, 5] | pest or weed control at 35 g/ha [1, 6] | pest or weed control at 70 g/ha [1, 6] | pest or weed control at 140 g/ha [1, 6] | pest or weed control at 35 g/ha [1, 7] | pest or weed control at 70 g/ha [1, 7] | pest or weed control at 140 g/ha [1, 7] | pest or weed control at 35 g/ha [1, 8] | pest or weed control at 35 g/ha [2, 9] | pest or weed control at 35 g/ha [2, 13] | pest or weed control at 35 g/ha [2, 14] | pest or weed control at 70 g/ha [2, 14] | pest or weed control at 140 g/ha [2, 14]
75 to 84%: pest or weed control at 70 g/ha [2, 13] | pest or weed control at 140 g/ha [2, 13]
95 to 100%: pest or weed control at 140 g/ha [1, 8] | pest or weed control at 70 g/ha [2, 11] | pest or weed control at 140 g/ha [2, 11] | pest or weed control at 140 g/ha [2, 12]
60 to 74%: pest or weed control at 70 g/ha [2, 9] | pest or weed control at 140 g/ha [2, 10] | pest or weed control at 35 g/ha [2, 12]
85 to 94%: pest or weed control at 140 g/ha [2, 9] | pest or weed control at 35 g/ha [2, 11] | pest or weed control at 70 g/ha [2, 12]
45 to 59%: pest or weed control at 70 g/ha [2, 10]
30 to 44%: pest or weed control at 140 g/ha [1, 5] | pest or weed control at 70 g/ha [1, 8] | pest or weed control at 35 g/ha [2, 10]

COC(=O)c1nc(-c2ccc3c(c2F)OC(F)(F)O3)cc(N)c1Cl [Compound 37, Methyl 4-amino-3-chloro-6-(2,2,4-trifluorobenzo-[d][1,3]dioxol-5-yl)picolinate]
30 to 44%: pest or weed control at 70 g/ha [2, 12]
85 to 94%: pest or weed control at 140 g/ha [1, 5] | pest or weed control at 35 g/ha [2, 10] | pest or weed control at 35 g/ha [2, 11]
0 to 29%: pest or weed control at 35 g/ha [1, 6] | pest or weed control at 70 g/ha [1, 6] | pest or weed control at 140 g/ha [1, 6] | pest or weed control at 35 g/ha [1, 7] | pest or weed control at 70 g/ha [1, 7] | pest or weed control at 140 g/ha [1, 7] | pest or weed control at 35 g/ha [2, 12]
60 to 74%: pest or weed control at 35 g/ha [1, 4] | pest or weed control at 35 g/ha [1, 5]
95 to 100%: pest or weed control at 35 g/ha [1, 3] | pest or weed control at 70 g/ha [1, 3] | pest or weed control at 140 g/ha [1, 3] | pest or weed control at 70 g/ha [1, 4] | pest or weed control at 140 g/ha [1, 4] | pest or weed control at 35 g/ha [1, 8] | pest or weed control at 70 g/ha [1, 8] | pest or weed control at 140 g/ha [1, 8] | pest or weed control at 35 g/ha [2, 9] | pest or weed control at 70 g/ha [2, 9] | pest or weed control at 140 g/ha [2, 9] | pest or weed control at 70 g/ha [2, 10] | pest or weed control at 140 g/ha [2, 10] | pest or weed control at 70 g/ha [2, 11] | pest or weed control at 140 g/ha [2, 11] | pest or weed control at 35 g/ha [2, 13] | pest or weed control at 70 g/ha [2, 13] | pest or weed control at 140 g/ha [2, 13] | pest or weed control at 35 g/ha [2, 14] | pest or weed control at 70 g/ha [2, 14] | pest or weed control at 140 g/ha [2, 14]
75 to 84%: pest or weed control at 70 g/ha [1, 5] | pest or weed control at 140 g/ha [2, 12]
